Measurements as given in paper PMC7000700, “RyR1-targeted drug discovery pipeline integrating FRET-based high-throughput screening and human myofiber dynamic Ca^2+ assays” (Scientific Reports, 2020).
Where two headings read alike, the source gives them in different places.

Legend:
MH-linked RyR1 mutant = test system: MH-linked RyR1 mutant; parameters: method as in PMID 29674523; conditions: HEK293 cells; cited from earlier work
RyR1 [1] = biological target: T1, RyR1 (Sus scrofa, UniProt P16960); parameters: RyR1 in skeletal SR membranes; from tissue; host or cells: porcine longissimus dorsi muscle (heavy SR vesicles); method as in PMID 27760856; conditions: skeletal HSR, previous study; cited from earlier work
T1 sequence (P16960 whole entry): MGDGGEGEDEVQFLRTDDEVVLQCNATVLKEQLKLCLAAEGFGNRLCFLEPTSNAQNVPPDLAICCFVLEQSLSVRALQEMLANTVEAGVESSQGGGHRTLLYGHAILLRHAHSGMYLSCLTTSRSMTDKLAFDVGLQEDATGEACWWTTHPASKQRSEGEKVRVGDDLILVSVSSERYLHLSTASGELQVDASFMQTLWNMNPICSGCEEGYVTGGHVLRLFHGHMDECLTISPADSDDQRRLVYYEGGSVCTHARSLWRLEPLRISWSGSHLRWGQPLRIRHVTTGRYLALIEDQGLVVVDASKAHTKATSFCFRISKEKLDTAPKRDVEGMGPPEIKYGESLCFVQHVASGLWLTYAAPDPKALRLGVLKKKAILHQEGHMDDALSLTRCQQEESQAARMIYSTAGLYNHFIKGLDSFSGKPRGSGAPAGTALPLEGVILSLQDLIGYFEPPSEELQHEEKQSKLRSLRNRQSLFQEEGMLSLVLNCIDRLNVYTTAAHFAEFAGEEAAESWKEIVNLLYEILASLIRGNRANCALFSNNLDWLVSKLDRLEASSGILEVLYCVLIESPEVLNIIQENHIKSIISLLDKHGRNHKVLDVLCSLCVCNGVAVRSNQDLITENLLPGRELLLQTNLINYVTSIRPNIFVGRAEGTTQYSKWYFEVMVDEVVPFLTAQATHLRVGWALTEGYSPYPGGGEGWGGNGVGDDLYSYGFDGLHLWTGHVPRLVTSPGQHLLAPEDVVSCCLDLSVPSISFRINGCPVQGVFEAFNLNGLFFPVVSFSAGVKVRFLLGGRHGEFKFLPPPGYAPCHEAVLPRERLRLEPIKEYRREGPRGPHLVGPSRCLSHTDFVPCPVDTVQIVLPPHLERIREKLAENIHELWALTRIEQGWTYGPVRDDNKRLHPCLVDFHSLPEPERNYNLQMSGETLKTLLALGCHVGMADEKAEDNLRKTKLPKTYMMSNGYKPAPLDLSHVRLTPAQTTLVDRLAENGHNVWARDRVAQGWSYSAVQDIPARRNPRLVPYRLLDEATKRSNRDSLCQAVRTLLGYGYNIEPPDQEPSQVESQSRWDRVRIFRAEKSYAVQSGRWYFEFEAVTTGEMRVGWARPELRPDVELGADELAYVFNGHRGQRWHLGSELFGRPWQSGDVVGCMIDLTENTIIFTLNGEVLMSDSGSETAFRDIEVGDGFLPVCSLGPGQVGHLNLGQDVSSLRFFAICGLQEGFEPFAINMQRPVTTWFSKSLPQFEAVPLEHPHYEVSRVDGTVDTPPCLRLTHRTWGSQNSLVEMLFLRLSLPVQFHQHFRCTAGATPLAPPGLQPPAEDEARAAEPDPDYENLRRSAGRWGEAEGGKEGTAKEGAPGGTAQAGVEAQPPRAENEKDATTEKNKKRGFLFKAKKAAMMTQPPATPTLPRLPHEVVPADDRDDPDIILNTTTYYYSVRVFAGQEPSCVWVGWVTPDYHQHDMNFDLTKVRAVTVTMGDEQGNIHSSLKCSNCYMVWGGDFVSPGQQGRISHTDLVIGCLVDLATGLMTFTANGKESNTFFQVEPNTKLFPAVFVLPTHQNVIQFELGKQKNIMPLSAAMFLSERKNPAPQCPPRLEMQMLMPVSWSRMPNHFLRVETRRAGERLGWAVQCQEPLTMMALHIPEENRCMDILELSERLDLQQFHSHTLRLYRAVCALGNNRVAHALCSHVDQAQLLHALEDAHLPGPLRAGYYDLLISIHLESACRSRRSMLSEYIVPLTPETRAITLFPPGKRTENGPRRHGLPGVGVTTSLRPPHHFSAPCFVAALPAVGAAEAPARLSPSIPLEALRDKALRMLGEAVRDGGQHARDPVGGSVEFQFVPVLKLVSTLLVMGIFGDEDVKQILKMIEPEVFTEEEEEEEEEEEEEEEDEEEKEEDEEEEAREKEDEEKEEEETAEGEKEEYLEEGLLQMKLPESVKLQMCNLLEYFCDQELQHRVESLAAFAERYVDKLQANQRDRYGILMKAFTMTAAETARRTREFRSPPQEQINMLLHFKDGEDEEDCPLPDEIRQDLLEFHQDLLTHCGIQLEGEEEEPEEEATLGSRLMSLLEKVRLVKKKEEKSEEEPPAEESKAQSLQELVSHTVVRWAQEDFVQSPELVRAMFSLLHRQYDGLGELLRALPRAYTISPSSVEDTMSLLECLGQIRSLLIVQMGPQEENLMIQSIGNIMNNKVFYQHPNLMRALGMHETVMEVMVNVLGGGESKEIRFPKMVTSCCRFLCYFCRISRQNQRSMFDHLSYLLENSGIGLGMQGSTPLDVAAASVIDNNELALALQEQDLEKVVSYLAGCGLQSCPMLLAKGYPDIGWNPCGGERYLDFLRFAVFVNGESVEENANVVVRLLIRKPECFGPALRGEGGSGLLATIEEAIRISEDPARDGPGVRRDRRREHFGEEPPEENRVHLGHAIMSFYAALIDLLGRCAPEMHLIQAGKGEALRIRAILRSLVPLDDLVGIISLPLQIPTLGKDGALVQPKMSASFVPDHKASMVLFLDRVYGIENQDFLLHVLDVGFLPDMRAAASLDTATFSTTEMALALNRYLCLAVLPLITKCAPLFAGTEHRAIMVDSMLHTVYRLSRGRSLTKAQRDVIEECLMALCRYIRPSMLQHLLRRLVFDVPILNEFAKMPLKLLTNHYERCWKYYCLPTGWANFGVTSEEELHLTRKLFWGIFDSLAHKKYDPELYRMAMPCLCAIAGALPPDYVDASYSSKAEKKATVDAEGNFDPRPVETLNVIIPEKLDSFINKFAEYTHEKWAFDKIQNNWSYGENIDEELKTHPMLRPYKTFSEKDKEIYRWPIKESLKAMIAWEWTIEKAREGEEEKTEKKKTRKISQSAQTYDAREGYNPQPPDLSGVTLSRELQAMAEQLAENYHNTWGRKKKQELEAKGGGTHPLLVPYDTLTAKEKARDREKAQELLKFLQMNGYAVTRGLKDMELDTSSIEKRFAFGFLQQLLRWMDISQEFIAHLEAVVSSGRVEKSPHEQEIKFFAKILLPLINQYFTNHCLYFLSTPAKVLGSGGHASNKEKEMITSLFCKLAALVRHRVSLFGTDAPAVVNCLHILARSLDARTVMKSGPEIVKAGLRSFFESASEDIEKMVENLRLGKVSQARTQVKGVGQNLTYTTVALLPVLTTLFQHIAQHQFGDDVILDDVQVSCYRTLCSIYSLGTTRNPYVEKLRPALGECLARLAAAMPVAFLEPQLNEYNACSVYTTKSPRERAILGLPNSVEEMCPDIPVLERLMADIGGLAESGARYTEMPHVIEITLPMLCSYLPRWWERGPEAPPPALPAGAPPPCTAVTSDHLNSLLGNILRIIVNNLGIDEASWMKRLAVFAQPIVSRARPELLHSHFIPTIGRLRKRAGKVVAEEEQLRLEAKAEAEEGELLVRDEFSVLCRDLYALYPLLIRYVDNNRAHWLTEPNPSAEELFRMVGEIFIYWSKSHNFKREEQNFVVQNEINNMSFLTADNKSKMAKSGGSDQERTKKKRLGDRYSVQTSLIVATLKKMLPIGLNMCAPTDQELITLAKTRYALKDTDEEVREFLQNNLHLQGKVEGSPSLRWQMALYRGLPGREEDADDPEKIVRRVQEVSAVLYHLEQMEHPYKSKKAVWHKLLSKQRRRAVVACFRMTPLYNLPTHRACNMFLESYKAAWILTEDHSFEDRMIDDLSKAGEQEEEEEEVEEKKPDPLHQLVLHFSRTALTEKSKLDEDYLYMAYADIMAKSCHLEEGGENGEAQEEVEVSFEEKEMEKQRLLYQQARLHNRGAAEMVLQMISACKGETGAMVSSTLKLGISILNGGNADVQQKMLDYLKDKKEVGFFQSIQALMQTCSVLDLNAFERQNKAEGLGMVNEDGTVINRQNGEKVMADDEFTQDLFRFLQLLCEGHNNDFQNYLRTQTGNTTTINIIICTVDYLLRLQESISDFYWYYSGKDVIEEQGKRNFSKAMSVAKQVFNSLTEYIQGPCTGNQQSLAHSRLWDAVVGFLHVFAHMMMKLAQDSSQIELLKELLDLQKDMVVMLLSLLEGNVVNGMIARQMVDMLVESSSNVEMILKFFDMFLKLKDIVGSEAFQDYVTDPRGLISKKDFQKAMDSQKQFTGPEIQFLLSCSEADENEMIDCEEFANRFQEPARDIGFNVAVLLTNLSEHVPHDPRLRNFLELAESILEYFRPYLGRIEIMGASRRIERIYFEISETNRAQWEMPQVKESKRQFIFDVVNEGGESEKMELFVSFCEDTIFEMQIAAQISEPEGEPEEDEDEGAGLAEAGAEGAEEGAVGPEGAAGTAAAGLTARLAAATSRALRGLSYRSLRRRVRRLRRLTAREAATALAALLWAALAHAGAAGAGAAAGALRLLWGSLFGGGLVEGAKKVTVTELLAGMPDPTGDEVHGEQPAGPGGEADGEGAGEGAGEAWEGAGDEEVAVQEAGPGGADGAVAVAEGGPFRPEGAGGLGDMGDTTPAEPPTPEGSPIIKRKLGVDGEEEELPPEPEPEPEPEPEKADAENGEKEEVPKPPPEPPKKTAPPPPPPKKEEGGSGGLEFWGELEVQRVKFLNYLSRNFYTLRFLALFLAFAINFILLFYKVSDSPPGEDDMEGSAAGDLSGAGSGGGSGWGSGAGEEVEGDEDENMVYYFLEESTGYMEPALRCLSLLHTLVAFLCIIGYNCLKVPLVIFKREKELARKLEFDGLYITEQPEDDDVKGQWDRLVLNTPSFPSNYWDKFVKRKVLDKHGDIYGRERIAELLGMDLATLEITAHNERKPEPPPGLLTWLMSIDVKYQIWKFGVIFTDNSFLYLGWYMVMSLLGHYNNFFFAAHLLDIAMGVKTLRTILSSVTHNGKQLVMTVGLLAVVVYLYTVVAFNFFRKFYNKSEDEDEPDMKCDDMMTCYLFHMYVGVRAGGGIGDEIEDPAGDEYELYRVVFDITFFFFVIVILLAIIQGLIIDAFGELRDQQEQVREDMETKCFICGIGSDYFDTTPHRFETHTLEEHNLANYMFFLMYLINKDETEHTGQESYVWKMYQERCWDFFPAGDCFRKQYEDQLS

RyR1 [2] = biological target: T1, RyR1; parameters: RyR1 in skeletal SR membranes; from tissue; host or cells: porcine longissimus dorsi muscle (heavy SR vesicles); method as in PMID 27760856; conditions: NIH Clinical Collection screen; cited from earlier work
RyR1 [3] = biological target: T1, RyR1; assay: [3H]ryanodine binding to skeletal SR vesicles; type: biochemical, porcine; parameters: RyR1 in skeletal SR membranes, and RyR2 in cardiac SR membranes; from tissue; host or cells: porcine longissimus dorsi muscle (heavy SR vesicles)
Procedure: (§1) To evaluate the functional impact of compounds identified through our FRET-based screen, we first used [^3H]ryanodine binding assays. The level of [^3H]ryanodine binding to RyRs in SR membranes is a well-established index of the RyR channel activity. Given the role of CaM binding in our FRET readout, we investigated whether CaM influences the functional effect of the Hit compounds by carrying out [^3H]ryanodine binding assays in the absence and presence of CaM (300 nM).
(§2) Crude sarcoplasmic reticulum (CSR) vesicles were isolated from porcine longissimus dorsi muscle and porcine cardiac left ventricle tissue by differential centrifugation of homogenized tissue. HSR vesicles, which are enriched in RyR1, were isolated by fractionation of crude skeletal SR vesicles using a discontinuous sucrose gradient. All vesicles were flash-frozen and stored at −80 °C. Immediately prior to the fluorescence or [^3H]ryanodine binding studies described below, the SR vesicles were stripped of residual endogenous CaM by incubation with a peptide derived from the CaM binding domain of myosin light chain kinase, followed by sedimentation.
In 96-well plates, HSR vesicles (1 mg/ml) and cardiac CSR vesicles (3 mg/mL) were pre-incubated with 0.02% DMSO or Hit compound, with or without 300 nM CaM, for 30 min at 22 °C in a solution containing 150 mM KCl, 5 mM GSSG, 1 µg/mL Aprotinin/Leupeptin, 1 mM EGTA, and 65 µM or 1.02 mM CaCl2 (as determined by MaxChelator to yield 30 nM or 30 μM of free Ca^2+, respectively), 0.1 mg/mL BSA and 20 mM K-PIPES (pH 7.0). Non-specific and maximal [^3H]ryanodine binding to SR were separately assessed by addition of 40 µM non-radioactively labeled ryanodine or 5 mM Adenylyl-imidodiphosphate, respectively. Such control samples were each distributed over 4 wells/plate. Binding of [^3H]ryanodine (10 and 15 nM for cardiac and skeletal SR, respectively) was determined after a 3-h incubation (37 °C) and filtration through grade GF/B Glass Microfiber filters (Brandel Inc., Gaithersburg, MD, US) using a Brandel Harvester. In 4 mL of Ecolite Scintillation cocktail (MP biomedicals, Solon, OH, USA), [^3H] on filter was counted using a Beckman LS6000 scintillation counter (Fullerton, CA).

RyR2 [4] = biological target: T2, RyR2 (Sus scrofa, UniProt A0A5G2R1W3); assay: F-FKBP binding to RyR2 by co-sedimentation with cardiac SR membranes; parameters: using co-sedimentation with pig skeletal and cardiac SR membranes; from tissue; host or cells: pig cardiac muscle (crude SR membranes); species or system pig; conditions: RyR2, 10 μM Hit, 30 nM Ca2+, 5 mM GSSG or GSH
Procedure: The Hit-induced effect on FRET between D-FKBP and A-CaM most likely results from one or the combination of factors, including a shift in CaM and/or FKBP12.6 binding, and/or structure of the RyR complex that shifts the D-A distance. Under the same assay conditions as in the primary screen, we assessed the effect of 10 μM Hit on fluorescent FKBP12.6 (F-FKBP) binding to RyRs, using co-sedimentation with pig skeletal and cardiac SR membranes.
Supplementary Fig. 3 Effect of HTS Hits on F-FKBP binding to a) RyR1 in skeletal HSR membranes, and b) RyR2
in cardiac CSR membranes at 30 nM Ca2+ in the presence of 5 mM GSSG or GSH. Results are represented as individual
data points and means ± SEM, n = 4-5. *P < 0.05 by 2-sided Student’s unpaired t-test. […]

RyR2 [5] = biological target: T2, RyR2; assay: [3H]ryanodine binding to cardiac SR vesicles; type: biochemical, porcine; parameters: RyR1 in skeletal SR membranes, and RyR2 in cardiac SR membranes; from tissue; host or cells: porcine cardiac left ventricle (crude SR vesicles); conditions: micromolar compound, significant only with CaM at 30 nM Ca2+ and only without CaM at 30 μM Ca2+
Procedure: as §1
as §2, with “HSR vesicles, which are enriched in RyR1, were isolated by fractionation of crude skeletal SR vesicles using a discontinuous sucrose gradient. All vesicles were flash-frozen and stored at −80 °C.” left out
In 96-well plates, HSR vesicles (1 mg/ml) and cardiac CSR vesicles (3 mg/mL) were pre-incubated with 0.02% DMSO or Hit compound, with or without 300 nM CaM, for 30 min at 22 °C in a solution containing 150 mM KCl, 5 mM GSSG, 1 µg/mL Aprotinin/Leupeptin, 1 mM EGTA, and 65 µM or 1.02 mM CaCl2 (as determined by MaxChelator to yield 30 nM or 30 μM of free Ca^2+, respectively), 0.1 mg/mL BSA and 20 mM K-PIPES (pH 7.0). […]

SMILES | Effect on readout of ER Ca2+ phenotypic screen (MH-linked RyR1 mutant) | Decrease in [3H]ryanodine binding (RyR1 [1]) [%] | Effect on FRET in previous 384-well screen (RyR1 [2]) | Maximum decrease in [3H]ryanodine binding (RyR1 [3]; 1 μM compound, 30 μM Ca2+) | Effect on [3H]ryanodine binding (RyR1 [3]; 20 μM compound, 30 nM Ca2+, only in the absence of CaM) | Effect on [3H]ryanodine binding (RyR1 [3]; 30 μM Ca2+, presence and absence of 0.3 μM CaM, 0-20 μM compound) | Decrease in [3H]ryanodine binding (RyR1 [3]; ≤ 10 μM compound, 30 nM Ca2+, with or without CaM) [%] | Decrease of F-FKBP binding (RyR2 [4]) | Effect on [3H]ryanodine binding (RyR2 [5])
Oc1c(Cl)cc(Cl)c2cccnc12 [chloroxine] | increased RyR1 activity | 20 | increased FRET | – | – | – | – | – | –
O=c1c(O)c(-c2cc(O)c(O)c(O)c2)oc2cc(O)cc(O)c12 [myricetin] | – | – | – | ~ 20% | dramatically increased | biphasic effect | > 50 | did not alter | only inhibits
